In patent US20100305071A1, “METHODS FOR IMPROVING HEALING OF AN ORAL LESION USING A GLYCEROPHOSPHATE SALT” (PRELIEF INC., priority 2007, published 2010):
Entries after “also recorded” stand apart in the source; their conditions may differ.

Columns and labels:
[1] = system: rhino mucosal passage inflammation; assay: Observation of low concentrations of CGP on rhino mucosal passage inflammation; format: in vivo; conditions: CGP between 1% and 2% by weight
[2] = system: wounds post implant placement (oral lesion); assay: Mucosal soft tissue healing in patients post implant placement applying dry CGP (PerioCell), small uncontrolled study; format: in vivo, human
Experimental: Methods according to embodiments of the present invention have been applied to multiple patients post implant placement. The age range of implant patients was 30-65 years. All patients had wound closure with 4-0 silk suture with interrupted knots unless otherwise noted. The patients were instructed to apply dry CGP that has less than 5% moisture in 150 micron granulate (PerioCell™, AkPharma Inc., Pleasantville, N.J. 08232) to the wounds three times daily, approximately 4 hours apart, for the first three days succeeding surgery. Mucosal soft tissue healing was observed and studied in these patients. Patient's compliance with the use instructions for CGP was reported by the patient at the post-operational visit (post-op) and was rated as Excellent, Good, Fair or Poor. In most, but not all cases, patients were reasonably compliant.

[3] = system: gum wounds after tooth extraction (oral lesion); assay: CGP powder applied to the gum wound after tooth extraction (single human subject); format: in vivo
Experimental: A tooth was removed from a human, subject and normal packing was applied. There were five (5) stitches put in. Approximately 2 hours after the extraction, the human subject lightly rinsed their mouth and applied powdered CGP granulate of approximately 150 micron size granules directly to the gum and allowed the powder to become wet. Sufficient CGP powder was applied to form a light plaster coating over the wound. This was repeated approximately 6 hours later, before retiring that night, and again the next morning. In all cases, the CGP remained intact and in a cohesive mass on the gum for 15 minutes or more, after which time it slowly dissolved or dispersed and was safely swallowed. At no time during the post-extraction period was there swelling or pain. […] Rapid healing of the gum wounds was observed by a periodontist at the normal stitch-removal visit, 7 days subsequent to tooth removal. The gums had fully closed and were normal pink color in about one week. The periodontist commented that in their 15 years of practice, they had never seen this quality of healing at this speed.

## calcium glycerophosphate [CGP]
[1]
  effect on apparent rhino mucosal passage inflammation: favorably affect
[2]; all implant patients
  correlation between good and excellent compliance with use instructions for CGP and little to no tissue gapping and good wound healing: definite correlation
[2]; one week post-op (2 weeks for patient 018), one patient per block
  erythema at the wound margin at first post-op visit: very little erythema or edema; also recorded: very little gingival erythema; also recorded: localized mild erythema; also recorded: little to no marginal erythema; also recorded: almost no erythema; also recorded: mild mesial inflammation; also recorded: Mild left side erythema and more moderate right side marginal erythema; also recorded: Mild to moderate marginal erythema
[2]; one week post-op (2 weeks for patient 018), one patient per block, CGP three times daily for first three days, compliance varies by patient
  wound closure / tissue approximation at first post-op visit, noted by periodontist: excellent tissue approximation; also recorded: good tissue approximation; also recorded: beautiful wound approximation; also recorded: perfect wound margin approximation; also recorded: moderate tissue gaps in the left side; also recorded: wound margins came together very well with no gaps; also recorded: greater than 50% gapping of the margins; also recorded: great wound approximation with no gaps; also recorded: great wound approximation; also recorded: slight tissue gap at the mesial aspect; also recorded: no gaps seen; also recorded: excellent wound approximation and perfect closure; also recorded: great heal; also recorded: Wound closure was better in the mandible than in the maxilla; also recorded: Wound closure looked great with no gaps; also recorded: moderate gap at wound margin; also recorded: mild gap at the wound margin; also recorded: good wound approximation; also recorded: better healing on the left side than on the right; also recorded: slight gap at the wound margin; also recorded: rolled wound borders with slight gapping across
[2]; three weeks to one month post-op, one patient per block
  healing / closure at later post-op visit: completely healed; also recorded: complete heal; also recorded: healing was complete; also recorded: things looked better; also recorded: perfectly closed wound; also recorded: implant was removed; also recorded: perfect tissue approximation; also recorded: perfect wound approximation; also recorded: excellent healing; also recorded: perfect closure; also recorded: good approximation; also recorded: all looked great; also recorded: complete closure; also recorded: good closure; also recorded: wound margin looked good; also recorded: wound margins were completely approximated; also recorded: excellent heal; also recorded: perfect heal on the left side
[3]; 7 days subsequent to tooth removal
  healing of the gum wounds observed by periodontist at stitch-removal visit: Rapid healing
[3]; CGP applied about 2 h and 8 h after extraction and next morning
  swelling or pain during the post-extraction period: At no time
[3]; after the extraction
  time until gums were normal pink color (self-observation via mirror): 36 to 48 h
